Data as given in PubChem BioAssay AID1549 (Sanford-Burnham Center for Chemical Genomics, 2009).
Active and inactive are the calls of the source. How the calls were made is not given here.

Target: Influenza A virus M2 proton channel (A/TW/4845/1999 H1N1)
Assay: M2 proton channel binding, NMR based, influenza A virus H1N1 strain (AID 1549)
Settings: NMR binding screen, M2 protein

| Compound | Kd |
| --- | --- |
| Cc1nc(N2CCOCC2)[nH]c(=O)c1C | > 4 mM (inactive) |
| Cc1n[nH]c(C)c1CC(=O)O | > 4 mM (inactive) |
| O=C(c1ccccc1)N1CCN(c2ccccc2F)CC1 | > 4 mM (inactive) |
| COc1cc2nc[nH]c(=O)c2cc1OC | > 4 mM (inactive) |
| Fc1cccc(Cl)c1CN1CCCNCC1 | > 4 mM (inactive) |
| Cc1onc(-c2ccccc2)c1CO | > 4 mM (inactive) |
| Cn1cnc2c(=O)[nH]cc([N+](=O)[O-])c21 | > 4 mM (inactive) |
| COc1ccc(C2NC(C(=O)O)CS2)cc1 (configuration not stated) | > 4 mM (inactive) |
| CC(C)CC(=O)Nc1c[nH]c(=O)[nH]c1=O | > 4 mM (inactive) |
| Cc1cc(C)n2nc(NCc3ccccc3)nc2n1 | > 4 mM (inactive) |
| CC(=O)O[C@H]1C[C@@H](OC(C)=O)C(C)(C)C2C[C@@H](OC(C)=O)[C@]3(C)C([C@H](OC(C)=O)C[C@@]4(C)[C@H](c5ccoc5)OC(=O)[C@H]5O[C@]543)[C@]21C (some centres not stated) | > 4 mM (inactive) |
| Nc1ccc2c(c1)COc1ccccc1O2 | > 4 mM (inactive) |
| Fc1cccc(Cl)c1CN1CCNCC1 | > 4 mM (inactive) |
| CC(=O)O[C@@H]1CC2C(C)(C)C(=O)C=C[C@]2(C)C2CC[C@]3(C)C(=CC(=O)O[C@H]3c3ccoc3)[C@@]21C (some centres not stated) | > 4 mM (inactive) |
| C[C@@H]1O[C@@H](O[C@H]2CC[C@]3(C=O)C4CC[C@]5(C)[C@@H](C6=CC(=O)OC6)CC[C@]5(O)C4CC[C@]3(O)C2)[C@H](O)[C@H](O)[C@H]1O (some centres not stated) | > 4 mM (inactive) |
| Cc1cc(C)n(/N=C\c2cccs2)c(=O)c1C(N)=O | > 4 mM (inactive) |
| NC(CC(=O)O)C(=O)Nc1ccc(Cl)cc1 (configuration not stated) | > 4 mM (inactive) |
| O=C(c1ccc(Cl)c(F)c1F)N1CCCC1 | > 4 mM (inactive) |
| Fc1ccc(F)c(CN2CCN(c3ncccn3)CC2)c1 | > 4 mM (inactive) |
| NC1=C([N+](=O)[O-])C(=O)c2ccccc21 | > 4 mM (inactive) |
| CC(=O)O[C@@H]1CC2C(C)(C)[C@H](O)CC[C@]2(C)C2CC[C@@]3(C)[C@H](c4ccoc4)OC(=O)C4OC43[C@@]21C (some centres not stated) | > 4 mM (inactive) |

| Compound | Kd |
| --- | --- |
| Cc1nc2ccc(C(=O)O)cc2[nH]1 | > 4 mM (inactive) |
| Cc1cc(C)cc(OC(=O)N2CCOCC2)c1 | > 4 mM (inactive) |
| CC1(C)C(=O)C=C[C@@]2(C)C1C[C@@H](O)[C@]1(C)C2CC[C@@]2(C)[C@H](c3ccoc3)OC(=O)[C@H]3O[C@]321 (some centres not stated) | > 4 mM (inactive) |
| O=C(NCN1CCOCC1)c1cccnc1 | > 4 mM (inactive) |
| Cc1noc(C)c1C(=O)Nc1cccnc1 | > 4 mM (inactive) |
| O=c1c(O)c(-c2ccc(O)cc2O)oc2cc(O)cc(O)c12 | > 4 mM (inactive) |
| NC(=O)c1ccccc1NC(=O)c1cccnc1 | > 4 mM (inactive) |
| Nc1cccc(S(=O)(=O)N2CCCC2)c1 | > 4 mM (inactive) |
| COc1ccc(C(C)=O)c(O)c1 | > 4 mM (inactive) |
| Oc1cc(O)c2c(c1)O[C@H](c1cc(O)c(O)c(O)c1)[C@H](O)C2 | > 4 mM (inactive) |
| COc1ccc(C(=O)O)cc1OC | > 4 mM (inactive) |
| O=C(Nc1ccc(N2CCOCC2)cc1)c1cnsn1 | > 4 mM (inactive) |
| c1ccc(Cc2nn3c(-c4ccncc4)nnc3s2)cc1 | > 4 mM (inactive) |
| CCN1CCc2c(sc(N)c2C#N)C1 | > 4 mM (inactive) |
| CC(CCC(=O)O)[C@H]1CCC2C3CC[C@@H]4CCCC[C@]4(C)C3CC[C@@]21C (some centres not stated) | > 4 mM (inactive) |
| C=C[C@@]1(C)CC(=O)[C@@]2(O)[C@](C)(O1)[C@@H](OC(C)=O)[C@@H](O)C1C(C)(C)CC[C@H](O)[C@@]12C (some centres not stated) | > 4 mM (inactive) |
| CCCc1cc(=O)[nH]c2nnc(SCC(C)=O)n12 | > 4 mM (inactive) |
| O=C(Nc1nc2ccccc2s1)c1ccc(=O)[nH]n1 | > 4 mM (inactive) |
| CCSc1nnc(-c2ccccc2N)c(=O)[nH]1 | > 4 mM (inactive) |
| COc1ccc(-c2ccc(=O)n(CC(N)=O)n2)cc1 | > 4 mM (inactive) |
| CC1(C)SCC(C(=O)O)N1C=O (configuration not stated) | > 4 mM (inactive) |
